“Also recorded” adds a separate entry of the source.

In one series the test system is primary rat neurons. Description: Modified MTT assay of Aβ toxicity in primary neurons. The format is cell-based. Conditions: for Aβ toxicity / Aβ-induced membrane trafficking dysfunction, modified MTT assay: compound 0.3, 3 or 15 μM, 90-minute pretreatment, 2.5 μM Aβ, 24 hours; for MTT: Table 3, Aβ toxicity in primary neurons. An excerpt:
Primary neuron cultures: All animal procedures were approved by the Institutional Animal Care and Use Committee at the University of Alabama at Birmingham (UAB). As before (Rush, et al. (2020) Neurobiol Dis 134, 104668; Voskobiynyk, et al. (2020) eLife 9, e57354), primary rat neurons were isolated from timed-pregnant Sprague-Dawley rats. Briefly, dams were euthanized with isoflurane anesthesia asphyxiation, and hippocampal tissue was isolated from E19 embryos in Hibernate E, then digested in papain for 10 minutes at 37° C. Neurons were triturated into a single cell suspension in Neurobasal supplemented with B-27, L-Glutamine, and 10% FBS, then plated in 96-well plates coated with PDL and laminin at 30,000 neurons per well in 200 uL medium or in 24-well coated plates with or without coverslips at 50,000 per well. Cultures were maintained at 37° C. with 5% CO2. Twenty-four hours after plating (DIV1), two 50% media changes with Neurobasal plus B-27 and L-Glutamine without FBS, and 5 μM cytosine β-D-arabinofuranoside was added to prevent glial proliferation. 50% media changes were performed at DIV7 and DIV14 with serum-free supplemented Neurobasal and experiments were started at DIV19.
Aβ oligomer preparation: As before (Rush, et al. (2020) Neurobiol Dis 134, 104668), lyophilized recombinant Aβ42 was dissolved in HFIP, dried overnight, then stored at −20° C. until oligomerization. To oligomerize, Aβ was dissolved in DMSO to 1 mM, then diluted to 100 µM in PBS, then sonicated and left on ice for 24 hours. Immediately prior to use, Aβ was centrifuged at 4° C. for 10 minutes at 14,000×g. Vehicle was prepared as well in identical fashion except lacking the Aβ peptide.
Aβ toxicity assays: The modified MTT and MAP2 assays were adapted from a recent study (Rush, et al. (2020) Neurobiol Dis 134, 104668). Briefly, at DIV19, media on the neurons was reduced to […], then compound was added to final concentration of 0 μM, 0.3 μM, 3 μM, or 15 μM with even amounts of DMSO. After 90-minute pretreatment with compound, 2.5 μM Aβ was added.
The modified MTT assay was performed 24 hours after Aβ application. 100 μM MTT was applied to neurons and incubated at 37° C. for one hour. Media was removed, then replaced with 15 μL 1.6% Tween20 in PBS and incubated on a shaker at 100 rpm for 5 minutes. The Tween was then removed and transferred to a 384-well clear-bottom plate and replaced with 15 μL isopropanol. Plates were again agitated for 5 minutes at RT, then isopropanol was transferred to the 384-well plate. Absorbance was then read at 590 nm on a plate reader, with 660 nm used as a reference. The ratio of Tween soluble MTT to isopropanol soluble (Tween-insoluble) MTT was calculated for each sample, then normalized to the vehicle group average.
A general note: Tetrazolium assays rely on reduction of a dye to a coloured formazan, in cell work by metabolically active cells.

Series [1] is described as follows: Metabolic stability in human liver microsomes. The class given is in vitro ADME. The note with it: Table 3, read-out: ADME t1/2 (min): HLMt1/2. An excerpt:
A computational analysis of the top five hits was then completed to assess the physical attributes of the compounds emerging from the HTS. The target profile for drug-like properties included evaluation of molecular weight (MW), total polar surface area (PSA, the surface sum of all polar atoms on the molecule), solubility, metabolic stability, and partition coefficient (LogD). In general, MW<[…] and PSA <70 Å^2 were targeted, which generally allows for blood-brain barrier (BBB) permeability. Compounds with PSA >100 A^2 are generally poor at permeating cell membranes. Solubility was targeted at >10 μM at pH 7.4 and 40-60% of compound remaining after 60 minutes of incubation in mouse or human liver microsomes (an indicator of compound stability after first-pass metabolism). LogD is the log of the ratio of concentrations of a compound in two immiscible solvents at equilibrium. Values ranging from 2-4 were targeted, typical for CNS drugs. Based on these criteria, compound no. 55 was selected as the top hit for optimization. Compound no.
(In general: Liver microsomes are a subcellular fraction often used to study metabolism.)

In the case of `O=C(CCN1C(=O)CSc2ccccc21)Nc1nnc(-c2ccccn2)[nH]1` [compound no. 55], the “Aβ toxicity / Aβ-induced membrane trafficking dysfunction, modified MTT assay” value in the series on primary rat neurons is listed as “prevented Aβ-induced membrane trafficking dysfunction; also recorded: ameliorates Aβ toxicity; also recorded: inhibited Aβ toxicity”.

Regarding `O=C(CN1C(=O)CSc2cc(F)ccc21)Nc1nnc(-c2ccccn2)[nH]1` [compound no. 12, 2-(7-FLUORO-3-oxo-2H-BENZO[B][1,4]THIAZIN-4(3H)-YL)-N-(5-(PYRIDIN-2-YL)-4H-1,2,4-TRIAZOL-3-YL)ACETAMIDE], the half-life in series [1] is greater than 300 min. Further, in the series on primary rat neurons, the MTT entry is listed as “Active” and the “Aβ toxicity / Aβ-induced membrane trafficking dysfunction, modified MTT assay” value is recorded as “inhibited Aβ toxicity; also recorded: did ameliorate Aβ toxicity”.

As to `O=C(CN1C(=O)CSc2cc(F)c(F)cc21)Nc1nnc(-c2ccccn2)[nH]1` [compound no. 14, 2-(6,7-DIFLUORO-3-OXO-2H-BENZO[B][1,4]THIAZIN-4(3H)-YL)-N-(5-(PYRIDIN-2-YL)-4H-1,2,4-TRIAZOL-3-YL)ACETAMIDE], in series [1], the half-life was 137 min. Besides, in the series with primary rat neurons, the MTT entry is “Active” and the “Aβ toxicity / Aβ-induced membrane trafficking dysfunction, modified MTT assay” value is reported as “did not ameliorate Aβ toxicity”.

As for `Cc1ccc2c(c1)SCC(=O)N2CC(=O)Nc1nnc(-c2ccccn2)[nH]1` [compound no. 23, 2-(7-METHYL-3-OXO-2H-BENZO[B][1,4]THIAZIN-4(3H)-YL)-N-(5-(PYRIDIN-2-YL)-4H-1,2,4-TRIAZOL-3-YL)ACETAMIDE], the half-life in series [1] worked out at 133 min. For the same compound, in the series on primary rat neurons, the MTT result is listed as “Active” and the “Aβ toxicity / Aβ-induced membrane trafficking dysfunction, modified MTT assay” value is on record as “inhibited Aβ toxicity; also recorded: did ameliorate Aβ toxicity”.

For `O=C(CN1CCOc2ccccc21)Nc1nnc(-c2ccccn2)[nH]1` [compound no. 69], the “Aβ toxicity / Aβ-induced membrane trafficking dysfunction, modified MTT assay” value in the series on primary rat neurons is on record as “prevented Aβ-induced membrane trafficking dysfunction; also recorded: ameliorates Aβ toxicity; also recorded: inhibited Aβ toxicity”.

On to `O=C(CN1CCOc2ccccc21)Nc1nnc(-c2ccccn2)[nH]1` [compound 47, 2-(2,3-DIHYDRO-4H-BENZO[B][1,4]OXAZIN-4-YL)-N-(5-(PYRIDIN-2-YL)-4H-1,2,4-TRIAZOL-3-YL)ACETAMIDE], for which the half-life in series [1] amounted to 93 min. Besides, the MTT entry in the series on primary rat neurons is listed as “Active”.

Consider `O=C(CN1CCCc2ccccc21)Nc1nnc(-c2ccccn2)[nH]1` [compound no. 45, 2-(3,4-DIHYDROQUINOLIN-1(2H)-YL)-N-(5-(PYRIDIN-2-YL)-4H-1,2,4-TRIAZOL-3-YL)ACETAMIDE], for which, in series [1], the half-life amounted to 66 min. In the series with primary rat neurons, the MTT result is listed as “Active” and the “Aβ toxicity / Aβ-induced membrane trafficking dysfunction, modified MTT assay” value was “inhibited Aβ toxicity; also recorded: did ameliorate Aβ toxicity”.

As for `O=C(CN1C(=O)CSc2cc(Cl)ccc21)Nc1nnc(-c2ccccn2)[nH]1` [compound no. 13, 2-(7-CHLORO-3-OXO-2H-BENZO[B][1,4]THIAZIN-4(3H)-YL)-N-(5-(PYRIDIN-2-YL)-4H-1,2,4-TRIAZOL-3-YL)ACETAMIDE], the half-life in series [1] is greater than 120 min. In the series on primary rat neurons, the MTT entry is listed as “Active” and the “Aβ toxicity / Aβ-induced membrane trafficking dysfunction, modified MTT assay” value was “inhibited Aβ toxicity; also recorded: did ameliorate Aβ toxicity”.

On to `O=C(CN1CCSc2ccccc21)Nc1nnc(-c2ccccn2)[nH]1` [compound no. 20, 2-(2H-BENZO[B][1,4]THIAZIN-4(3H)-YL)-N-(5-(PYRIDIN-2-YL)-4H-1,2,4-TRIAZOL-3-YL)ACETAMIDE], for which the half-life in series [1] was found to be 85 min. Moreover, the MTT entry with primary rat neurons is listed as “Insoluble”.

These data come from patent US20250367209A1 (SOUTHERN RESEARCH INSTITUTE, priority 2022, published 2025).
